Measured values as given in PMC10119282, “Molecular characterization of AIFM2/FSP1 inhibition by iFSP1-like molecules” (Cell Death & Disease, 2023).

Experiments:
[1] = tested on: Pfa1 Gpx4−/− cells overexpressing human FSP1 (hFSP1); assay: Cell viability (Alamar blue), dose-response toxicity in Gpx4-knockout cells expressing hFSP1; assay type: cell-based, murine
Protocol: (§1) Cell Lines. 4-hydroxytamoxifen (TAM)-inducible Gpx4^−/− murine immortalized fibroblasts (Pfa1) were reported previously. These cells harbor two loxP-flanked Gpx4 alleles and stably express TAM inducible Cre recombinase allowing the genetic deletion of Gpx4 at will. For all experiments using Gpx4^−/− the well were treated with 4-hydroxitamoxifen (TAM) 1 µM. All cells were cultured with were cultured in DMEM-high glucose (4.5 g glucose/L) with 10% fetal bovine serum (FBS), Glutamax, and 1% penicillin/streptomycin (Gibco, Thermo Fischer) at 37 °C with 5% CO2 and verified to be negative for mycoplasma.
(§2) Cell viability assays. Alamar Blue method: Cells were seeded on 96-well plates (2000 cells per well) and treated with the compounds RSL3, iFSP1 and (liproxstatin-1) after plating. Cell viability was assessed 48 h (unless stated otherwise) after treatment using Alamar Blue as an indicator of viable cells. Alamar blue solution was made by dissolving of 1 g resazurin sodium salt (Thermo Fischer) in 200 mL sterile PBS and sterile filtrated through a 0.22 µm filter. Stock solutions were stored at 4 °C. The working solution was made freshly by adding 200 µL of the stock solution to 25 mL growth media. After 2–4 h incubation time, viability was estimated by measuring the fluorescence using a 540/35 excitation filter and a 590/20 emission on a Spark® microplate reader (Tecan, Zürich, Switzerland).
Codon-optimized Mus musculus (mouse) FSP1 (NP_001034283.1) and Homo sapiens (Human) FSP1 (NP_001185625.1) were synthesized by IDT as gBlocks^TM and subcloned into p442-IRES-blast vectors. The chimera constructs were generated based on the pairwise alignment between the gene of Homo sapiens (Human) and the Mus musculus (Mouse), all the chimeric constructs contain the murine isoform with one region exchanged to the human isoform. […]

[2] = tested on: Pfa1 Gpx4−/− cells overexpressing murine FSP1 (mFSP1); assay: Cell viability (Alamar blue), dose-response toxicity in Gpx4-knockout cells expressing mFSP1; assay type: cell-based
Protocol: as §1
as §2, with “Switzerland). […]” for “Switzerland).”

[3] = tested on: Pfa1 Gpx4−/− overexpressing chimeric FSP1 C1; assay: Cell viability (Alamar blue), chimeric construct C1; assay type: cell-based, murine; conditions: Mus musculus; chimeric construct C1 (human residues 1 to 59); x axis iFSP1 (μM); read-out: IC50 (dose-response toxicity)
Protocol: as §1
as §2, with “Switzerland). […]” for “Switzerland).”

[4] = tested on: Pfa1 Gpx4−/− overexpressing hFSP1 F360L; assay: Cell viability (Alamar blue), hFSP1 F360L; assay type: cell-based, murine
Protocol: as §1, §2

[5] = biological target: T1, recombinant purified hFSP1 F360L mutant (Homo sapiens, UniProt Q9BRQ8, F360L); assay: NADH consumption assay (340 nm), FSP1 enzyme activity and inhibition; assay type: biochemical; conditions: iFSP1 2 µM; menadione as substrate
T1 construct: HisSUMO (cleaved yes); made in house; host or cells: E. coli BL21
T1 sequence (Q9BRQ8 whole entry F360L): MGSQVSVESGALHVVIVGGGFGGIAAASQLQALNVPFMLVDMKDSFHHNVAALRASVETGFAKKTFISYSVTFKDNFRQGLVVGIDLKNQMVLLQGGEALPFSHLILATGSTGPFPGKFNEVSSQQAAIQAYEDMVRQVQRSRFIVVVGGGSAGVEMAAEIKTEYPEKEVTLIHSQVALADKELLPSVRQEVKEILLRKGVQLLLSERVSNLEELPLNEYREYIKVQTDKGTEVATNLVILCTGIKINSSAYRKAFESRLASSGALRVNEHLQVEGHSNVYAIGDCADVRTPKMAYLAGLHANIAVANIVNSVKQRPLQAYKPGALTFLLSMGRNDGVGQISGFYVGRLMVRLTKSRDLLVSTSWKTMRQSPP
Protocol: (§3) FSP1 (human isoform 1, UniProt Q9BRQ8-1) WT (hFSP1 WT) and F360L (hFSP1 F360L) were expressed in E.coli BL21 as HisSUMO fusion protein. Cells were grown in lysogeny broth medium at 18 °C and induced with 0.5 mM isopropyl-β-thiogalactoside at a cell density A600 of 0.6. Cells were collected after overnight expression by centrifugation, resuspended in lysis buffer ([…], 50 mM Tris-HCl pH 8, 1 mM TCEP, 20 mM imidazole, protease inhibitor, DNase) and lysed by sonication. Cell debris was removed by centrifugation (30,000 × g) at 4 °C for 30 min, after which an IMAC purification was performed. […] IMAC eluates were analysed by SDS PAGE and concentrated to 15 mL (hFSP1 WT) and 5 mL (hFSP1 F360L), respectively. […] Pure fractions were pooled (C12—D11 for hFSP1 WT and C7—D4 for hFSP1 F360L), analysed by SDS-PAGE (Supplementary Fig. 4) and concentrated to 5.8 mL at 285.9 µM (hFSP1 WT) and 1.2 mL at 269.5 µM (FSP1 F360L), flash frozen in liquid N2 and stored at −80 °C.
(§4) Enzyme reactions were performed in TBS buffer (50 mM TRIS pH 8, 250 mM NaCl) on a 96-well plate in a 100 µL final volume. […] Absorbance (340 nm) was recorded every 30 s on a Spark® microplate reader (Tecan, Zürich, Switzerland) in order to determine NADH consumption. […]

[6] = biological target: T2, recombinant purified hFSP1 WT (Homo sapiens, UniProt Q9BRQ8); assay: as above; assay type: biochemical; conditions: iFSP1 2 µM; menadione as substrate
T2 construct: HisSUMO (cleaved yes); made in house; host or cells: E. coli BL21
T2 sequence (Q9BRQ8 whole entry): as the sequence (Q9BRQ8 whole entry F360L) above, with L360F counted along it
Protocol: as §3, §4

Cc1ccc(-c2c(C#N)c(N)n3c(nc4ccccc43)c2C#N)cc1 [iFSP1]
IC50 ([1]; Mus musculus, hFSP1 WT, Δ curve (no Lip-1), Alamar blue, x axis iFSP1 (μM)): 0.45 µM
induction of ferroptosis ([1]; human isoform): induce ferroptosis
IC50 ([2]; Mus musculus, mFSP1 WT, Δ curve (no Lip-1), Alamar blue, x axis iFSP1 (μM)): 7.48 µM
induction of ferroptosis ([2]; murine isoform): could only induce ferroptosis in the cell line expressing the human isoform
IC50 [3]: 9.41 µM
capacity to induce ferroptosis [4]: completely abolished the capacity of iFSP1 to induce ferroptosis
IC50 ([4]; Mus musculus, x axis iFSP1 (μM), read-out: IC50 (dose-response toxicity)): 6.18 µM
inhibition of enzyme activity (NADH consumption) [5]: just the activity of the WT protein was inhibited by iFSP1
inhibition of enzyme activity (NADH consumption) [6]: inhibited
